These results are taken from publication PMC8301602 (AIChE journal. American Institute of Chemical Engineers, 2020).

In one assay the target is iLOV (Arabidopsis thaliana, UniProt P93025, S394T/S409G/C426A/I452T/F470L/M475V). The assay can be described thus: fluorescence titration of apo protein, emission at […] nm. It counts as binding. To be noted: PBS; noncooperative 1:1 fit, protein concentration fitted.
Another assay concerns the target T1, EcFbFP (Bacillus subtilis, UniProt O34627, C62A).
T1 sequence (O34627 1-137 C62A limits assumed): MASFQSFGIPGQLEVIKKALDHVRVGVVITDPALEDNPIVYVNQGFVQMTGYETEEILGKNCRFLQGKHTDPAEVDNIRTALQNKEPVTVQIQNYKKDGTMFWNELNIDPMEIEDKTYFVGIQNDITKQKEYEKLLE
The assay is described as above. Format: binding.

Assay [1] has as its target EcFbFP (B. subtilis). Briefly: SEC. (In general: Size exclusion chromatography separates by hydrodynamic size, large species first.)
Assay [2] addresses EcFbFP (B. subtilis). The assay can be described thus: SEC. The source holds these as a separate data set.

Like-named read-outs stand apart in the source and are kept apart here.

What is called Kd is the concentration at which binding is half-saturated. Read a high Kd as a looser complex. For orientation: stoichiometry N means the number of molecules, sites or subunits per partner or assembly.

iLOV, sequence (P93025 387-496 S394T/S409G/C426A/I452T/F470L/M475V limits assumed): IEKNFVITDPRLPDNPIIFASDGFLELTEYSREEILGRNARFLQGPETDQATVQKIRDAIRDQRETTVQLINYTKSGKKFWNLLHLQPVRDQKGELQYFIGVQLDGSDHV

Regarding `Cc1cc2nc3c(=O)[nH]c(=O)nc-3n(C[C@H](O)[C@H](O)[C@H](O)COP(=O)(O)O)c2cc1C` [FMN], the Kd at iLOV amounted to 230 ± 20 nM; on EcFbFP, 180 ± 30 nM.

For the compound `Cc1cc2nc3c(=O)[nH]c(=O)nc-3n(C[C@H](O)[C@H](O)[C@H](O)COP(=O)(O)OP(=O)(O)OC[C@H]3O[C@@H](n4cnc5c(N)ncnc54)[C@H](O)[C@@H]3O)c2cc1C` [FAD], the Kd on iLOV turned out to be 180 ± 30 nM; at EcFbFP, 130 ± 20 nM.

For the compound `Cc1cc2nc3c(=O)[nH]c(=O)nc-3n(C[C@H](O)[C@H](O)[C@H](O)CO)c2cc1C` [riboflavin], the Kd on iLOV stood at 890 ± 170 nM; at EcFbFP, 760 ± 150 nM.

Take EcFbFP: the stoichiometry N in the assay with EcFbFP (B. subtilis) [1] and with EcFbFP (B. subtilis) [2] was 2 throughout.
